For test [1], the system named is ecDNA+ FGFR2 amplified SNU-16 CDX tumor model. Kind of test: Anti-tumor and PD activity in ecDNA+ FGFR2 amplified SNU-16 CDX model, first study. Format: in vivo, female SCID beige mice. An excerpt:
(§1) Tumor volume (mm^3) data are shown as mean z SEM for each treatment group. […] PO: orally, mpk: mg/kg, QD: once per day, Q2D: once every other day.

The test system is the same in test [2]. Kind of test: Durability of anti-tumor response in SNU-16 CDX model, subsequent study. Format: in vivo, Female BALB/c nude mice. The settings on record: single agents vs vehicle: Compound 1 50 mg/kg PO Q2D, infigratinib 15 mg/kg PO QD.
Text: as §1

In test [3] the test system is ecDNA+ CDK4 amplified SJSA-1 CDX tumor model. Description: Anti-tumor activity in ecDNA+ CDK4 amplified osteosarcoma SJSA-1 CDX model. The format is in vivo, Female Hsd:Athymic Nude-Foxnlnu mice. The settings on record: vs vehicle. The source says: Tumor volume (mm^3) data are shown as mean±SEM for each treatment group. […] PO: orally, QD: once every day, Q2D: once every other day.

For the compound `CCN1CCN(c2ccc(Nc3cc(N(C)C(=O)Nc4c(Cl)c(OC)cc(OC)c4Cl)ncn3)cc2)CC1` [infigratinib], the “mean % ΔTGI” value amounted to 97.6% in test [1] (Day 12 vs vehicle, single agents: Compound 1 100 mg/kg PO Q2D, infigratinib 15 mg/kg PO QD) and 65.4% in test [2]. The “antitumor activity (in words)” value in test [1] (infigratinib 15 mg/kg PO QD alone or with Compound 1 PO Q2D) is “tumors resumed growth”. In test [1] (tumors treated for 12 days, infigratinib 15 mg/kg PO QD alone or with Compound 1 25, 50, 100 mg/kg PO Q2D), the “tumor FGFR2 gene copy number (qPCR)” value was “concomitant increase in FGFR2 gene copy number”.

Consider `CC(=O)c1c(C)c2cnc(Nc3ccc(N4CCNCC4)cn3)nc2n(C2CCCC2)c1=O` [palbociclib], for which the “mean % ΔTGI” value came to 16.9% in test [3] (single agent 20 mg/kg PO QD, Study 2 (FIG. 3B)) and 78.3% in test [3] (single agent 50 mg/kg PO QD, Study 1 (FIG. 3A)).

The values are drawn from patent US20260263454A1, “USES OF A CHECKPOINT KINASE 1 (CHK1) INHIBITOR” (Boundless Bio, Inc., priority 2023, published 2026).
